Measured values reported in ChEMBL document CHEMBL4813951 (Eur J Med Chem, 2021).

Tests used:
[1] = target: Histamine H1 receptor (Homo sapiens, UniProt P35367); assay: Displacement of [3H]mepyramine from human histamine H1 receptor expressed in sf9 insect cell membranes co-expressing RGS4 incubated for 60 mins by microbeta scintillation counting method; parameters: species or system Membrane
[2] = target: T1, Histamine H2 receptor (Homo sapiens, UniProt P25021); assay: Displacement of [3H]UR-DE257 from human histamine H2 receptor expressed in sf9 insect cell membranes co-expressing GSalphaS incubated for 60 mins by microbeta scintillation counting method; parameters: species or system Membrane
[3] = target: Histamine H3 receptor (Homo sapiens, UniProt Q9Y5N1); assay: Displacement of [3H]UR-P129 from human histamine H3 receptor expressed in sf9 insect cell membranes co-expressing Galphai2/Gbeta1gamma2 incubated for 60 mins by microbeta scintillation counting method; parameters: species or system Membrane
[4] = target: Histamine H2 receptor (Cavia porcellus, UniProt P47747); assay: Agonist activity at guinea pig right atrium histamine H2 receptor assessed as increase in heart rate incubated for 30 mins in presence of cimetidine; format: functional, tissue-based, Right cardiac atrium
[5] = target: Histamine H2 receptor (Cavia porcellus) (UniProt P47747); assay: Agonist activity at guinea pig right atrium histamine H2 receptor assessed as intrinsic activity incubated for 30 mins in presence of cimetidine relative to histamine; format: functional, tissue-based; details: Right cardiac atrium, filed as agonist
[6] = target: Histamine H4 receptor (Homo sapiens, UniProt Q9H3N8)
[7] = target: T2, D(3) dopamine receptor (Homo sapiens, UniProt P35462); assay: Displacement of [3H]N-methylspiperone from human D3 receptor expressed in HEK293T cells co-expressing CRE-Luc incubated for 60 mins by microbeta scintillation counting method; format: cell-based
[8] = target: T2, D(3) dopamine receptor; assay: Agonist activity at […] expressed in HEK293T cells co-expressing ELucC by beta arrestin2 recruitment assay; format: functional, cell-based
[9] = target: T1, Histamine H2 receptor; assay: Agonist activity at human histamine H2 receptor expressed in HEK293T cells co-expressing ELucC by beta arrestin2 recruitment assay; format: functional, cell-based
[10] = target: T1, Histamine H2 receptor; assay: Agonist activity at human histamine receptor expressed in sf9 insect cell membranes co-exprssing GsalphaS incubated for 90 mins [35S]GTPgammaS binding based microbeta scintillation counting analysis; format: functional, Membrane
[11] = target: T3, D(2) dopamine receptor (Homo sapiens, UniProt P14416); assay: Displacement of [3H]N-methylspiperone from human D2L receptor expressed in HEK293T cells co-expressing CRE-Luc incubated for 60 mins by microbeta scintillation counting method; format: cell-based
[12] = target: T3, D(2) dopamine receptor; format: functional, cell-based, HEK293T
[13] = target: T1, Histamine H2 receptor; assay: Agonist activity at human histamine H2 receptor expressed in sf9 insect cell membranes co-exprssing GsalphaS assessed as intrinsic activity at >=30 uM incubated for 90 mins [35S]GTPgammaS binding based microbeta scintillation counting analysis relative to histamine; format: functional; details: Membrane, filed as agonist, dose microM >=30, time 90.0 min

Sequence of Histamine H1 receptor (P35367 whole entry): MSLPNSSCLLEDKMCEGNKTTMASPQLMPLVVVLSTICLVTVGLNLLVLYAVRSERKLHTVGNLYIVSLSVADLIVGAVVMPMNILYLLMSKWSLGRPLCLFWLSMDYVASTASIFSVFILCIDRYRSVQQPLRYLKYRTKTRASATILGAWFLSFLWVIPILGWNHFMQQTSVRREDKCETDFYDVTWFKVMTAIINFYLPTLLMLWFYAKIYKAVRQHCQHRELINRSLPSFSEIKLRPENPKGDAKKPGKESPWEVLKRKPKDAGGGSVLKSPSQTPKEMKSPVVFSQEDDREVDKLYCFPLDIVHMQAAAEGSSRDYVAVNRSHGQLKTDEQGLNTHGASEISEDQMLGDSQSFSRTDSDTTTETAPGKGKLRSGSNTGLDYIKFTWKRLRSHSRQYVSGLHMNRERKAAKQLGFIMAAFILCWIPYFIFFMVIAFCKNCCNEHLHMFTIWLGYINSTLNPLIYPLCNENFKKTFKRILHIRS
T3 sequence (P14416 whole entry): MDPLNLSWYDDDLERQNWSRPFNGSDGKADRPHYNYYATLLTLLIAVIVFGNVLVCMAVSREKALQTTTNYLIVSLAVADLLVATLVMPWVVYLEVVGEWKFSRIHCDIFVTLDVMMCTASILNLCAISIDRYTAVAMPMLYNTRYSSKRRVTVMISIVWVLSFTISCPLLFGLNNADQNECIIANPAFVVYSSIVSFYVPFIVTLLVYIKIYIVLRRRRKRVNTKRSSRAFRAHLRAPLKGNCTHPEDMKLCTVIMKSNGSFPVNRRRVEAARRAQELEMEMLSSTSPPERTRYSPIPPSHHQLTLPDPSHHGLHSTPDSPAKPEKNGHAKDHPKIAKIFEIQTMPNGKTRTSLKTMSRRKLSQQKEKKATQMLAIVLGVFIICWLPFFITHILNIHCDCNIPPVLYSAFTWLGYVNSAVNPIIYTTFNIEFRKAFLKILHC
Sequence of Histamine H2 receptor (Cavia porcellus, UniProt P47747) (P47747 whole entry): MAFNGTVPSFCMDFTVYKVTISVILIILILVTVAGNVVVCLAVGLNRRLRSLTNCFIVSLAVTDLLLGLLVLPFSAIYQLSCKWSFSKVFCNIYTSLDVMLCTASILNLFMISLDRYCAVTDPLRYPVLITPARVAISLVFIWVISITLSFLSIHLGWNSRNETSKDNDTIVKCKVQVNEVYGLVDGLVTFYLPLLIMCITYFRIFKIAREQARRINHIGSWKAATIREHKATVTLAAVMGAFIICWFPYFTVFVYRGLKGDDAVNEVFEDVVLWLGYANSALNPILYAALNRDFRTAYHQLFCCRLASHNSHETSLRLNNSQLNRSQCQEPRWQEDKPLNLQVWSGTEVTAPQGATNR
Sequence of Histamine H2 receptor (Cavia porcellus) (P47747 whole entry): as above
Sequence of Histamine H3 receptor (Q9Y5N1 whole entry): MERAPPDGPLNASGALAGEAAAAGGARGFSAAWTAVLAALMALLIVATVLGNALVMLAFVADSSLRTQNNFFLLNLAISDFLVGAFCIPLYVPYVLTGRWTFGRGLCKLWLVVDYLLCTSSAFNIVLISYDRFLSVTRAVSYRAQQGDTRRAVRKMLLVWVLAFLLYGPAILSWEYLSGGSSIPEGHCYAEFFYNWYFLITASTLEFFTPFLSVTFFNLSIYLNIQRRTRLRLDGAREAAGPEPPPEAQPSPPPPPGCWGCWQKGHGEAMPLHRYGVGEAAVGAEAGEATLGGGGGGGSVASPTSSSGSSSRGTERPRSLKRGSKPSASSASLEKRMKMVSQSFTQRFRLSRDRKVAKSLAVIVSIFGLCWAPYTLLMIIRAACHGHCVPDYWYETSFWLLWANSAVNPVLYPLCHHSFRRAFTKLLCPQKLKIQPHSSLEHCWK
T2 sequence (P35462 whole entry): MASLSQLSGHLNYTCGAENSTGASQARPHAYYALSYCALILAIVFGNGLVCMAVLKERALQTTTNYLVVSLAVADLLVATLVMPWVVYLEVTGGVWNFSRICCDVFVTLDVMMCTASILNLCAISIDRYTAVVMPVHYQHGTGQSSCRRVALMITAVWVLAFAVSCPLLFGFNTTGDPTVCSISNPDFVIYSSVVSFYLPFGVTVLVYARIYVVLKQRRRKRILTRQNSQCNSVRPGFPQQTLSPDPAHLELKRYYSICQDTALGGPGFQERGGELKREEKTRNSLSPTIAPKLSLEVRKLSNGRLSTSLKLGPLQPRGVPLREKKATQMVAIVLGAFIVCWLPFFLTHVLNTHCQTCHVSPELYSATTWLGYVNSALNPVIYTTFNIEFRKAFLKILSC
T1 sequence (P25021 whole entry): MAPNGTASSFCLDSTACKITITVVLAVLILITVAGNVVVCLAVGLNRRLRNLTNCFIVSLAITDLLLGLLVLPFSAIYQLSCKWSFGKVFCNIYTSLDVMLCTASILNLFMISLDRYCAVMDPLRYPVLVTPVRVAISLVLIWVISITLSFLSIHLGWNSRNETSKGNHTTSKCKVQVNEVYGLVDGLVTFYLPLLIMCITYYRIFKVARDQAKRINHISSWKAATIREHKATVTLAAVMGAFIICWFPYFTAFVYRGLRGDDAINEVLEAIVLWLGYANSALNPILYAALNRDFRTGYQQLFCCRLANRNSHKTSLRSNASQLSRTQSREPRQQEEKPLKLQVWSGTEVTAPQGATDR
Sequence of Histamine H4 receptor (Q9H3N8 whole entry): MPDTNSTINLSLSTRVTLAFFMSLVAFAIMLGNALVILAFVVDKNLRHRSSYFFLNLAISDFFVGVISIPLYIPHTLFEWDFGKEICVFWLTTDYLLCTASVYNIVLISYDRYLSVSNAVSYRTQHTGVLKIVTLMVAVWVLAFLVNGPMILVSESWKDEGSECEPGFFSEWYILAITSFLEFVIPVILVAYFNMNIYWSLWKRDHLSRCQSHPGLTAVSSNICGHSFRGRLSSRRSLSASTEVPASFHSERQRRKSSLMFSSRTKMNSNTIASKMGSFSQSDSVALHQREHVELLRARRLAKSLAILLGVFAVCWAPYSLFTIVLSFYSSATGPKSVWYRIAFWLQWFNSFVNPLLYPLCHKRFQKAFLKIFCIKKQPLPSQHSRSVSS

SMILES | Ki [1] [µM] | Ki [2] [µM] | Ki [3] [µM] | EC50 [4] [µM] | Intrinsic activity [5] | Ki [6] [µM] | Ki [7] [µM] | EC50 [8] [µM] | EC50 [9] [µM] | EC50 [10] [µM] | Ki [11] [µM] | EC50 [12] [µM] | Intrinsic activity [13]
Cc1nc(N)sc1CCCN/C(N)=N/C(=O)NC(C)c1ccc(Cl)cc1 (stereo unspecified) | 4.47 | 0.0468 | 17.8 | 0.0245 | 0.93 | 8.51 | – | – | – | – | – | – | –
Cc1nc(N)sc1CCCN/C(N)=N/C(=O)N[C@@H](C)c1ccccc1 | 21.4 | 0.0513 | 33.1 | 0.0234 | – | 17.8 | 0.0245 | 0.229 | – | – | – | – | –
Cc1nc(N)sc1CCCN/C(N)=N/C(=S)NC[C@@H](C)c1ccccc1 | 52.5 | 0.427 | 83.2 | 0.148 | 0.66 | 32.4 | – | – | – | – | – | – | –
Cc1nc(N)sc1CCCN/C(N)=N/C(=O)NC(C)c1cccc(F)c1 (stereo unspecified) | 7.76 | 0.00204 | 38.9 | 0.0263 | – | 13.2 | 0.00871 | 0.0724 | 0.0646 | – | – | – | –
Cc1nc(N)sc1CCCN/C(N)=N/C(=O)NC(C)c1cccs1 (stereo unspecified) | 25.7 | 0.0631 | 58.9 | 0.01 | 0.88 | 30.2 | – | – | – | – | – | – | –
Cc1nc(N)sc1CCCN/C(N)=N/C(=O)NC(C)c1ccccc1F (stereo unspecified) | 17 | 0.0288 | 30.9 | 0.0123 | 0.93 | 12.9 | – | – | – | – | – | – | –
Cc1nc(N)sc1CCCN/C(N)=N/C(=S)NC(c1ccccc1)c1ccccc1 | 46.8 | 0.603 | 43.7 | 0.0661 | 0.67 | 23.4 | – | – | – | – | – | – | –
Cc1nc(N)sc1CCCN/C(N)=N/C(=O)NCc1ccco1 | 24 | 0.0105 | 74.1 | 0.0117 | 0.58 | 75.9 | – | – | – | – | – | – | –
CCC(CNC(=O)/N=C(\N)NCCCc1sc(N)nc1C)c1ccccc1 (stereo unspecified) | 7.94 | 0.0776 | 16.6 | – | – | 6.76 | 0.0646 | 0.0407 | 0.269 | 0.0288 | – | – | –
Cc1nc(N)sc1CCCN/C(N)=N/C(=O)NC(c1ccccc1)C(C)C (stereo unspecified) | 24.5 | 0.0355 | 19.1 | 0.0347 | 1.04 | 7.94 | – | – | – | – | – | – | –
Cc1nc(N)sc1CCCN/C(N)=N/C(=S)N[C@@H](C)c1ccccc1 | 77.6 | 0.339 | 81.3 | 0.224 | 0.65 | 55 | – | – | – | – | – | – | –
Cc1nc(N)sc1CCCN/C(N)=N/C(=S)N[C@H](C)c1ccccc1 | 110 | 0.115 | 64.6 | 0.0891 | 0.87 | 26.9 | 0.0603 | 0.166 | 0.372 | – | 1.17 | 1.51 | –
Cc1nc(N)sc1CCCN/C(N)=N/C(=O)NC(C)c1ccc(OC(F)(F)F)cc1 (stereo unspecified) | 21.9 | 0.126 | 14.5 | 0.724 | 0.61 | 8.13 | – | – | – | – | – | – | –
Cc1nc(N)sc1CCCN/C(N)=N/C(=O)NCC(c1ccccc1)c1ccccc1 | 5.25 | 0.0871 | 10 | 0.174 | 0.76 | 4.9 | – | – | – | – | – | – | –
Cc1nc(N)sc1CCCN/C(N)=N/C(=O)NC(C)c1ccc(F)cc1 (stereo unspecified) | 10.2 | 0.0316 | 25.7 | 0.0234 | 0.92 | 13.8 | – | – | – | – | – | – | –
Cc1nc(N)sc1CCCN/C(N)=N/C(=O)NC(c1ccccc1)C(F)(F)F (stereo unspecified) | 53.7 | 0.229 | 31.6 | 0.0479 | 0.85 | 17.4 | – | – | – | – | – | – | –
Cc1nc(N)sc1CCCN/C(N)=N/C(=O)NCCc1ccccc1 | – | 0.158 | – | – | – | 14.8 | – | – | 0.166 | 0.0447 | – | – | 0.72
N/C(=N\C(=O)NCc1ccccc1)Nc1cccc(-c2csc(N)n2)c1 | – | – | – | – | – | 34.7 | – | – | – | – | – | – | –
N/C(=N\C(=O)NCc1ccccc1)NC1CCc2nc(N)sc2C1 (stereo unspecified) | 1.2 | 0.513 | 3.31 | – | – | 30.2 | 5.01 | – | 4.37 | 0.214 | 0.55 | – | 0.53
